What was measured:
Format in all cases: cell-based
[1] = target: proteins of U3A human fibrosarcoma cells (4462 proteins detected) (Homo sapiens, UniProt Q04721); settings: protein NOTCH2, U3A cells
[2] = target: proteins of U3A human fibrosarcoma cells (4462 proteins detected) (Homo sapiens, UniProt Q13596); settings: protein SNX1; U3A cells
[3] = target: proteins of U3A human fibrosarcoma cells (4462 proteins detected) (Homo sapiens, UniProt Q13263); settings: protein TRIM28; U3A cells
[4] = target: proteins of U3A human fibrosarcoma cells (4462 proteins detected) (Homo sapiens, UniProt P28799); settings: protein GRN; U3A cells
[5] = target: proteins of U3A human fibrosarcoma cells (4462 proteins detected) (Homo sapiens, UniProt Q9H8M7); settings: protein FAM188A, U3A cells
[6] = target: proteins of U3A human fibrosarcoma cells (4462 proteins detected) (Homo sapiens, UniProt Q9HC36); settings: protein RNMTL1; U3A cells
[7] = target: proteins of U3A human fibrosarcoma cells (4462 proteins detected) (Homo sapiens, UniProt Q06546); settings: protein GABPA; U3A cells
[8] = target: proteins of U3A human fibrosarcoma cells (4462 proteins detected) (Homo sapiens, UniProt Q9ULU4); settings: protein ZMYND8; U3A cells
[9] = target: proteins of U3A human fibrosarcoma cells (4462 proteins detected) (Homo sapiens, UniProt Q9NSV4); settings: protein DIAPH3, U3A cells
[10] = target: proteins of U3A human fibrosarcoma cells (4462 proteins detected) (Homo sapiens, UniProt Q8TD30); settings: protein GPT2; U3A cells
[11] = target: proteins of U3A human fibrosarcoma cells (4462 proteins detected) (Homo sapiens, UniProt Q93008); settings: protein USP9X; soluble abundance after heat, U3A cells
[12] = target: proteins of U3A human fibrosarcoma cells (4462 proteins detected) (Homo sapiens, UniProt Q9Y6H1); settings: protein CHCHD2; CHCHD2P9; U3A, 10 μM, 2 h
[13] = target: proteins of U3A human fibrosarcoma cells (4462 proteins detected) (Homo sapiens, UniProt O75400); settings: protein PRPF40A; U3A cells
Chain of proteins of U3A human fibrosarcoma cells (4462 proteins detected) (Homo sapiens, UniProt O75400) (O75400 whole entry): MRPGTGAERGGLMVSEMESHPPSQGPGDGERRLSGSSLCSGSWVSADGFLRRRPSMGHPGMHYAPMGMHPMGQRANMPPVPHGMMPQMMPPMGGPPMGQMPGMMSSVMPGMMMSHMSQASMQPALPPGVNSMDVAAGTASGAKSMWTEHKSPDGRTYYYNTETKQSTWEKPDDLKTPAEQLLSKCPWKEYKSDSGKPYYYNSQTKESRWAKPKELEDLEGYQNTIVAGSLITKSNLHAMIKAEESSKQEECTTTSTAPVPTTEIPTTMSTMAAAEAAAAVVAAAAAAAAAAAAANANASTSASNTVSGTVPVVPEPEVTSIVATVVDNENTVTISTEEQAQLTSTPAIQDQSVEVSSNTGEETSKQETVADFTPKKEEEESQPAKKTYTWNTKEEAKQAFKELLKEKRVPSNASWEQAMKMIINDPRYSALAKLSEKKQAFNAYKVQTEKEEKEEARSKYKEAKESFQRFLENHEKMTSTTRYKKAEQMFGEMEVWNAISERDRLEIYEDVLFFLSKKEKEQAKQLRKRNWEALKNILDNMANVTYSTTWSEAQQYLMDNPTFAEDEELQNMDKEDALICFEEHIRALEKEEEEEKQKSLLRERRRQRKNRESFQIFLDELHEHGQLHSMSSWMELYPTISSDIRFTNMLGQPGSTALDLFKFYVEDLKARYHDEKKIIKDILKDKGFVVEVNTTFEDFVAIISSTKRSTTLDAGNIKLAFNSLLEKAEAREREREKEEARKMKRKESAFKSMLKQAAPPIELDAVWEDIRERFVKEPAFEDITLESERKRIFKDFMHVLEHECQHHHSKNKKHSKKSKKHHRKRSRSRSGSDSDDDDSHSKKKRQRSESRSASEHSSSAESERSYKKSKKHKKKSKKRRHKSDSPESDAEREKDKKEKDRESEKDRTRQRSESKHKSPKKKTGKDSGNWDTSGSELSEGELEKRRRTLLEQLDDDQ

[14] = target: proteins of U3A human fibrosarcoma cells (4462 proteins detected) (Homo sapiens, UniProt Q9Y3C8); settings: protein UFC1; U3A cells
[15] = target: proteins of U3A human fibrosarcoma cells (4462 proteins detected) (Homo sapiens, UniProt Q9BWU0); settings: protein SLC4A1AP, U3A cells
[16] = target: proteins of U3A human fibrosarcoma cells (4462 proteins detected) (Homo sapiens, UniProt Q9NXV6); settings: protein CDKN2AIP; U3A cells
[17] = target: proteins of U3A human fibrosarcoma cells (4462 proteins detected) (Homo sapiens, UniProt Q96P48); settings: protein ARAP1; soluble abundance after heat, U3A cells
[18] = target: proteins of U3A human fibrosarcoma cells (4462 proteins detected) (Homo sapiens, UniProt Q9HC38); settings: protein GLOD4, U3A cells
Chain of proteins of U3A human fibrosarcoma cells (4462 proteins detected) (Homo sapiens, UniProt Q9HC38) (Q9HC38 whole entry): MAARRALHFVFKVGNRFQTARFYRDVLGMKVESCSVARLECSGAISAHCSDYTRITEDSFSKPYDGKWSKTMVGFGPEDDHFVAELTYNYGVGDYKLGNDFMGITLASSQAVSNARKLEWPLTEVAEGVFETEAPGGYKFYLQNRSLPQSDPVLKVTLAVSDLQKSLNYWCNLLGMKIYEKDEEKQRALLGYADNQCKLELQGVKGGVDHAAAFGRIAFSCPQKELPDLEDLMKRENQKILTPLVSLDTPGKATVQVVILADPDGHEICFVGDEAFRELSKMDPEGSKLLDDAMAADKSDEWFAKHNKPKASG

[19] = target: proteins of U3A human fibrosarcoma cells (4462 proteins detected) (Homo sapiens, UniProt O60291); settings: protein MGRN1; U3A, 10 μM, 2 h
Chain of proteins of U3A human fibrosarcoma cells (4462 proteins detected) (Homo sapiens, UniProt O60291) (O60291 whole entry): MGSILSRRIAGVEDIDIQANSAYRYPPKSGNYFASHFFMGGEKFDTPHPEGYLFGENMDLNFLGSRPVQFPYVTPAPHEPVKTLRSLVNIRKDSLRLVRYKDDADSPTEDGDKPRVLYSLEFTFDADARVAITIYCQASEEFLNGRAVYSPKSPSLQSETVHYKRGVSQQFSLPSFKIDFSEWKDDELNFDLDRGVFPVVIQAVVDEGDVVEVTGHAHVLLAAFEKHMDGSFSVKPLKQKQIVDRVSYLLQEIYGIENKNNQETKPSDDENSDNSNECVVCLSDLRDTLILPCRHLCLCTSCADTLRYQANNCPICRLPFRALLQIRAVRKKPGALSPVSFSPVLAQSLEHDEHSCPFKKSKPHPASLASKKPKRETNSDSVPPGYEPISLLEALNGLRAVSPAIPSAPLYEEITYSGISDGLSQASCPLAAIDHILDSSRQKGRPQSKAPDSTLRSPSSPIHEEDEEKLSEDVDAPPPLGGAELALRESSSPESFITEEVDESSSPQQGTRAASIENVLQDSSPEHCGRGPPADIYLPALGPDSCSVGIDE

[20] = target: proteins of U3A human fibrosarcoma cells (4462 proteins detected) (Homo sapiens, UniProt O75367); settings: protein H2AFY; U3A, 10 μM, 2 h
[21] = target: proteins of U3A human fibrosarcoma cells (4462 proteins detected) (Homo sapiens, UniProt P48556); settings: protein PSMD8; U3A cells
[22] = target: proteins of U3A human fibrosarcoma cells (4462 proteins detected) (Homo sapiens, UniProt P22413); settings: protein ENPP1; U3A cells
[23] = target: proteins of U3A human fibrosarcoma cells (4462 proteins detected) (Homo sapiens, UniProt O76003); settings: protein GLRX3; U3A cells
[24] = target: proteins of U3A human fibrosarcoma cells (4462 proteins detected) (Homo sapiens, UniProt P34896); settings: protein SHMT1, U3A cells
[25] = target: proteins of U3A human fibrosarcoma cells (4462 proteins detected) (Homo sapiens, UniProt O75937); settings: protein DNAJC8, U3A cells
Chain of proteins of U3A human fibrosarcoma cells (4462 proteins detected) (Homo sapiens, UniProt O75937) (O75937 whole entry): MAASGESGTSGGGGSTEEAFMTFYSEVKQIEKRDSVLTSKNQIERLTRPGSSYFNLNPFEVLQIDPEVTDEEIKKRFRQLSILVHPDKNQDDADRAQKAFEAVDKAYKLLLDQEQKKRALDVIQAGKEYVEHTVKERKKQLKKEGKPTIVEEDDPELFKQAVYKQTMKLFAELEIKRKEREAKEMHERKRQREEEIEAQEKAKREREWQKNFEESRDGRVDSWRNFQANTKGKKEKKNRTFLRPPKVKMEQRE

[26] = target: proteins of U3A human fibrosarcoma cells (4462 proteins detected) (Homo sapiens, UniProt Q5T4S7); settings: protein UBR4; soluble abundance after heat, U3A cells
[27] = target: proteins of U3A human fibrosarcoma cells (4462 proteins detected) (Homo sapiens, UniProt O60885); settings: protein BRD4; soluble abundance after heat, U3A cells
[28] = target: proteins of U3A human fibrosarcoma cells (4462 proteins detected) (Homo sapiens, UniProt Q16775); settings: protein HAGH, U3A cells
[29] = target: proteins of U3A human fibrosarcoma cells (4462 proteins detected) (Homo sapiens, UniProt Q9UJF2); settings: protein RASAL2, U3A cells
[30] = target: proteins of U3A human fibrosarcoma cells (4462 proteins detected) (Homo sapiens, UniProt Q9P000); settings: protein COMMD9; U3A cells

Chain of proteins of U3A human fibrosarcoma cells (4462 proteins detected) (Homo sapiens, UniProt Q13596) (Q13596 whole entry): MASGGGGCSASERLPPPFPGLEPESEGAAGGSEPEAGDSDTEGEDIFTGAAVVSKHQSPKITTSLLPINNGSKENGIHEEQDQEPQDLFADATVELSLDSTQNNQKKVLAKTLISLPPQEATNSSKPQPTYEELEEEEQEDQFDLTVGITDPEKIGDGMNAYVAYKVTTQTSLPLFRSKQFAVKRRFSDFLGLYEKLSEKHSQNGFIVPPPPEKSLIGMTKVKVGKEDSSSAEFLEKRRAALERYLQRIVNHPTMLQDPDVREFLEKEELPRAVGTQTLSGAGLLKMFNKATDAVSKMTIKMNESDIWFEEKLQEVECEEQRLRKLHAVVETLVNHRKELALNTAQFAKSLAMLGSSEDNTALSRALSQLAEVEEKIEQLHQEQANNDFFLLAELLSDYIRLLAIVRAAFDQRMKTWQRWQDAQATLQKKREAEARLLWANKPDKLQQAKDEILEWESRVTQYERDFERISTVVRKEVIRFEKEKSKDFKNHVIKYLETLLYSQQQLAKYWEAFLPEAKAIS
Chain of proteins of U3A human fibrosarcoma cells (4462 proteins detected) (Homo sapiens, UniProt Q04721) (Q04721 26-2471): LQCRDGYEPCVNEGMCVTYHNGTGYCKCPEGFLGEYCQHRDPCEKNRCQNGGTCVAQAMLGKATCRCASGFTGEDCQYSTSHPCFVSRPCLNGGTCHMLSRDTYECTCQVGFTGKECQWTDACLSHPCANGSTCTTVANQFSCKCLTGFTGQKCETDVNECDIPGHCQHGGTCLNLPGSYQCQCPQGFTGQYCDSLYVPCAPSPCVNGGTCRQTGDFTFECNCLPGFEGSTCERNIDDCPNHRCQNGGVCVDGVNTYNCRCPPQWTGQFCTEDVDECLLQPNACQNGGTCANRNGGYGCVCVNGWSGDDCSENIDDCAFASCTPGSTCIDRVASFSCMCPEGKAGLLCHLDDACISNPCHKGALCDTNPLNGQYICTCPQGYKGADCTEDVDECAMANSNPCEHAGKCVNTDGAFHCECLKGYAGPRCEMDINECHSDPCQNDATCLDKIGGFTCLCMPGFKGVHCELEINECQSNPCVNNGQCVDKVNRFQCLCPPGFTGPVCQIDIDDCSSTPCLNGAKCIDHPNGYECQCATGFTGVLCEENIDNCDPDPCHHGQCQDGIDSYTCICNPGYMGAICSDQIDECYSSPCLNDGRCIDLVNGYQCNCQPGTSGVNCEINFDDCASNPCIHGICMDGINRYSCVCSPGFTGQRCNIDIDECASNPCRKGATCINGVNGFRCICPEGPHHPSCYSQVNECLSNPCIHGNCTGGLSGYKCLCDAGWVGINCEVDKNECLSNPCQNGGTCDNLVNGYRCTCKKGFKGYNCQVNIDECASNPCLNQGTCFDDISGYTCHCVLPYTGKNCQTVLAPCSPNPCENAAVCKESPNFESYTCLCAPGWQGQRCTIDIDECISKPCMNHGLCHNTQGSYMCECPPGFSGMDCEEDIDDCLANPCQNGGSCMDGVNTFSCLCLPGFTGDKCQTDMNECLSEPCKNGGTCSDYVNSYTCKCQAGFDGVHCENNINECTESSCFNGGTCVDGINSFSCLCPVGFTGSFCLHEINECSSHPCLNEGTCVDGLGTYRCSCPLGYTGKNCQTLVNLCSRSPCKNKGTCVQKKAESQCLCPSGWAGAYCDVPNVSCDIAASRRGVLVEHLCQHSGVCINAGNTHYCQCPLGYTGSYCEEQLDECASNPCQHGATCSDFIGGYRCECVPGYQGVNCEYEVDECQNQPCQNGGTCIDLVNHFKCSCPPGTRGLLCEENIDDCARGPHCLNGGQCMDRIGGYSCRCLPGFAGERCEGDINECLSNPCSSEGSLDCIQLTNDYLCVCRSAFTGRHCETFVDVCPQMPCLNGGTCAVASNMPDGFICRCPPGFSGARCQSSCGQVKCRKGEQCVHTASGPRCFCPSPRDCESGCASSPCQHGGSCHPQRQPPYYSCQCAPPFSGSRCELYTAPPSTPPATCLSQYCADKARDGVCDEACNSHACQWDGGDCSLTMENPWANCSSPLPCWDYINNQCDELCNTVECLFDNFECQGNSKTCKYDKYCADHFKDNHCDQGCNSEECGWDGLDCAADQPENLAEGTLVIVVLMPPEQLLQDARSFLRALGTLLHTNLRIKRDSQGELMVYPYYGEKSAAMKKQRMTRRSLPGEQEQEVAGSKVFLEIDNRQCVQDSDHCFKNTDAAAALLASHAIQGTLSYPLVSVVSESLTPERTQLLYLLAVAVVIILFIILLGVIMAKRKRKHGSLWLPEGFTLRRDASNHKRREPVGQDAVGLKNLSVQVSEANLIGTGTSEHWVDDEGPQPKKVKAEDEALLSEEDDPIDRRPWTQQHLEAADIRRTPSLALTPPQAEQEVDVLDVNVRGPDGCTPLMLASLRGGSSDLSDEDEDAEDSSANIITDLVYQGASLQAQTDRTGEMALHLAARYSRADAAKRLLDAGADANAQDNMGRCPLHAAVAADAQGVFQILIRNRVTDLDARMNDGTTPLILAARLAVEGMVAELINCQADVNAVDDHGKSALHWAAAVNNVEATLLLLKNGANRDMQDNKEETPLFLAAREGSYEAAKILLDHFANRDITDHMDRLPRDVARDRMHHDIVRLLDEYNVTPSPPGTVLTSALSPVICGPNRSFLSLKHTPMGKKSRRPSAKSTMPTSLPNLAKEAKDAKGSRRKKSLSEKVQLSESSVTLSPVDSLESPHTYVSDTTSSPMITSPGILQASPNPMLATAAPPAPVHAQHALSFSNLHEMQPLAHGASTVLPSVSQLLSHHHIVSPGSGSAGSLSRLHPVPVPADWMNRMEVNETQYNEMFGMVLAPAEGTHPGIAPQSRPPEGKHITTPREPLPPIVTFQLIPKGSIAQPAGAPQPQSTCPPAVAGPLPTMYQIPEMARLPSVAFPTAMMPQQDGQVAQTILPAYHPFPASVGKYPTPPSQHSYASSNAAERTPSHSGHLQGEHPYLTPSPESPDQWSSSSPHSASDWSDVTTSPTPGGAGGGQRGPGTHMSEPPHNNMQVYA

Which results are given for `CCc1nc(N)nc(N)c1-c1ccc(Cl)cc1` [pyrimethamine]?
Log2 (PYR/DMSO) [1]: -0.04; Log2 (PYR/DMSO) [2]: 0.17; Log2 (PYR/DMSO) [3]: 0.16; Log2 (PYR/DMSO) [4]: 0.21; Log2 (PYR/DMSO) [5]: -0.04; Log2 (PYR/DMSO) [6]: 0.21; Log2 (PYR/DMSO) [7]: 0.19; Log2 (PYR/DMSO) [8]: 0.16; Log2 (PYR/DMSO) [9]: -0.04; Log2 (PYR/DMSO) [10]: 0.16; Log2 (PYR/DMSO) [11]: 0.14; Log2 (PYR/DMSO), CHCHD2; CHCHD2P9 [12]: 0.36; Log2 (PYR/DMSO) [13]: 0.16; Log2 (PYR/DMSO) [14]: 0.16; Log2 (PYR/DMSO) [15]: -0.04; Log2 (PYR/DMSO) [16]: 0.16; Log2 (PYR/DMSO) [17]: 0.14; Log2 (PYR/DMSO) [18]: -0.04; Log2 (PYR/DMSO), MGRN1 [19]: -0.25; Log2 (PYR/DMSO), H2AFY [20]: 0.33; Log2 (PYR/DMSO) [21]: 0.17; Log2 (PYR/DMSO) [22]: 0.22; Log2 (PYR/DMSO) [23]: 0.16; Log2 (PYR/DMSO) [24]: -0.05; Log2 (PYR/DMSO) [25]: -0.05; Log2 (PYR/DMSO) [26]: 0.14; Log2 (PYR/DMSO) [27]: 0.14; Log2 (PYR/DMSO) [28]: -0.04; Log2 (PYR/DMSO) [29]: -0.05; Log2 (PYR/DMSO) [30]: 0.16

From PMC8800111 (The Journal of Biological Chemistry, 2021)
